# Target: Nuclear receptor coactivator 3 (Homo sapiens) (UniProt Q9Y6Q9)
# Experiment: SRC-3 protein downregulation in breast cancer cells – cell-based, MCF-7, Western blot, powder samples, mechanism study for SRC-3 inhibitor probe project, late-stage follow-up (AID 652066)
# Details: MCF-7 SRC-3 protein level, 24 h
# Sequence of Nuclear receptor coactivator 3 (Homo sapiens) (Q9Y6Q9 whole entry, looked up): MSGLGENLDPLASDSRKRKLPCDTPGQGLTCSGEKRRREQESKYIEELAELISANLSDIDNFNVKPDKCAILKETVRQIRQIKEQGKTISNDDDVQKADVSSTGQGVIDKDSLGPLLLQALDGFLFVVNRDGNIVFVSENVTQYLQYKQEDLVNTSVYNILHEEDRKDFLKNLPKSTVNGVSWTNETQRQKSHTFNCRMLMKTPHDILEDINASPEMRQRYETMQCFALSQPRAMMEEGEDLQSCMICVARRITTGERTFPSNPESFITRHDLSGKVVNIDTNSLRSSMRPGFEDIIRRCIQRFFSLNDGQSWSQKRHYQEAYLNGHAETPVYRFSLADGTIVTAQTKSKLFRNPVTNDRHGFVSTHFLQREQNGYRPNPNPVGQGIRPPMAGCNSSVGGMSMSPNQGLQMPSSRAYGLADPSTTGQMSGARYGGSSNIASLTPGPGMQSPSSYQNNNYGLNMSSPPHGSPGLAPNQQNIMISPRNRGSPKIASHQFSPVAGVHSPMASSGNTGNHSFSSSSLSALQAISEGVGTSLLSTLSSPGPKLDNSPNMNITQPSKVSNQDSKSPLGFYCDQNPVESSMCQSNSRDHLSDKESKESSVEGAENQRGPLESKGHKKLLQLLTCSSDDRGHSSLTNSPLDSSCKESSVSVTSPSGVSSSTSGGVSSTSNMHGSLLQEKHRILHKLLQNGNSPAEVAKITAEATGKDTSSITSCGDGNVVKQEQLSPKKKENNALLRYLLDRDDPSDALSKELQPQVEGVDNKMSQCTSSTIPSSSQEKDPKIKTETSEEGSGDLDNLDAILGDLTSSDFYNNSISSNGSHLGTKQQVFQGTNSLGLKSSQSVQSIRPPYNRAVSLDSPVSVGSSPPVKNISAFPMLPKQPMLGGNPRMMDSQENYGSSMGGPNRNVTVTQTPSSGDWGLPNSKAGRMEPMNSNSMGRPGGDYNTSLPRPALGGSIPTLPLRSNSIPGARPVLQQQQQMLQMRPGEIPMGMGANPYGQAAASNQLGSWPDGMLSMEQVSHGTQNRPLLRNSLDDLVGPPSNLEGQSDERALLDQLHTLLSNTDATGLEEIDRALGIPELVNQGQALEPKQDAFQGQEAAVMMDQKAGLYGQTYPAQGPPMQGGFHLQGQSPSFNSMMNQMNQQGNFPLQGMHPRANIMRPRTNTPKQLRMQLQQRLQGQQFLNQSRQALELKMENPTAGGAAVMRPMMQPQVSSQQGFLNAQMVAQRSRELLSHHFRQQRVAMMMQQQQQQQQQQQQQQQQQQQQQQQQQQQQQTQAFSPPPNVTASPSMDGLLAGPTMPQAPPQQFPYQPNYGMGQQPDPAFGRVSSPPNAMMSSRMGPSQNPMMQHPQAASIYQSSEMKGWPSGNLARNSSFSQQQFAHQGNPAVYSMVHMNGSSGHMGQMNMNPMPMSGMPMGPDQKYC
row,SMILES,IC50
1,O=C(CCl)N1N=C(c2ccco2)CC1c1ccco1 (stereo unspecified),< 2000 nM
2,COc1cc2c(cc1OC)C(NC(=O)C(F)(F)F)CNC2=O (stereo unspecified),< 2000 nM

# Other lines, results leading:
row,IC50,SMILES
1,< 2000 nM,O=C(Nc1nc(-c2ccccn2)cs1)c1cccc(S(=O)(=O)N2CCOCC2)c1
2,< 2000 nM,NC(=O)c1sc2nc3c(c(-c4ccco4)c2c1N)CCC3
3,< 400 nM,O=C(CCl)N1N=C(c2ccco2)CC1c1cccs1 (stereo unspecified)
4,< 400 nM,COc1cc(C2c3cc4c(cc3C(OC3OC5COC(c6cccs6)OC5C(O)C3O)C3COC(=O)C23)OCO4)cc(OC)c1O (stereo unspecified)
